Test results published in ChEMBL document CHEMBL6114967, “Design and synthesis of novel sulfur-substituted triptolide with the ability to induce autophagy through inhibition of SRSF1 expression” (Eur J Med Chem, 2025).
The source made the active and inactive calls. No cut-off for these calls is given here.

Tests used:
AGS [1] = test: Downregulation of SRSF1 mRNA expression in human AGS cells incubated for 24 hrs by SYBR green dye based RT-qPCR analysis; assay type: functional, cell-based; conditions: dose 0.5-2 µM
MCF7 = test: Antiproliferative activity against human MCF7 cells assessed as inhibition of cell proliferation incubated for 72 hrs by MTT assay; assay type: functional, cell-based; conditions: MCF7, 72 h
AGS [2] = test: Antiproliferative activity against human AGS cells assessed as inhibition of cell proliferation incubated for 72 hrs by MTT assay; assay type: functional, cell-based
A549 = test: Antiproliferative activity against human A549 cells assessed as inhibition of cell proliferation incubated for 72 hrs by MTT assay; assay type: functional, cell-based; conditions: A549, 72 h
[3] = Antiproliferative activity against human LO2 cells assessed as inhibition of cell proliferation incubated for 72 hrs by MTT assay; assay type: toxicity, cell-based, L02
[4] = Selectivity index, ratio of IC50 for antiproliferative activity against human LO2 cells to IC50 for antiproliferative activity against human AGS cells; assay type: cell-based; conditions: LO2 cells and AGS cells, read-out: Ratio IC50
HGC-27 [5] = test: Induction of apoptosis in human HGC-27 cells assessed as viable cells at 0.5 uM incubated for 48 hrs by annexin V-FITC and PI staining based flow cytometry analysis (reference value: 91.8%); assay type: functional; conditions: read-out: Activity
HGC-27 [6] = test: Induction of apoptosis in human HGC-27 cells assessed as late apoptotic cells at 1 uM incubated for 48 hrs by annexin V-FITC and PI staining based flow cytometry analysis (reference value: 5.02%); assay type: functional
HGC-27 [7] = test: Induction of apoptosis in human HGC-27 cells assessed as necrotic cells at 1 uM incubated for 48 hrs by annexin V-FITC and PI staining based flow cytometry analysis (reference value: 0.062%); assay type: functional
HGC-27 [8] = test: Induction of apoptosis in human HGC-27 cells assessed as early apoptotic cells at 2 uM incubated for 48 hrs by annexin V-FITC and PI staining based flow cytometry analysis (reference value: 3.13%); assay type: functional
HGC-27 [9] = test: Induction of apoptosis in human HGC-27 cells assessed as late apoptotic cells at 2 uM incubated for 48 hrs by annexin V-FITC and PI staining based flow cytometry analysis (reference value: 5.02%); assay type: functional
AGS [10] = test: Induction of apoptosis in human AGS cells assessed as viable cells at 0.5 uM incubated for 48 hrs by annexin V-FITC and PI staining based flow cytometry analysis (reference value: 92.0%); assay type: functional; conditions: read-out: Activity
AGS [11] = test: Induction of apoptosis in human AGS cells assessed as early apoptotic cells at 0.5 uM incubated for 48 hrs by annexin V-FITC and PI staining based flow cytometry analysis (reference value: 4.44%); assay type: functional
AGS [12] = test: Induction of apoptosis in human AGS cells assessed as early apoptotic cells at 1 uM incubated for 48 hrs by annexin V-FITC and PI staining based flow cytometry analysis (reference value: 4.44%); assay type: functional
AGS [13] = test: Induction of apoptosis in human AGS cells assessed as necrotic cells at 1 uM incubated for 48 hrs by annexin V-FITC and PI staining based flow cytometry analysis (reference value: 0.44%); assay type: functional
AGS [14] = test: Induction of apoptosis in human AGS cells assessed as late apoptotic cells at 2 uM incubated for 48 hrs by annexin V-FITC and PI staining based flow cytometry analysis (reference value: 3.15%); assay type: functional
HGC-27 [15] = test: Downregulation of Bcl-xl expression in human HGC-27 cells at 0.5 to 2 uM incubated overnight by Western blotting analysis; assay type: functional, cell-based; conditions: dose 0.5-2 µM
HGC-27 [16] = test: Induction of apoptosis in human HGC-27 cells assessed as increase in cleaved PARP expression at 0.5 to 2 uM incubated overnight by Western blotting analysis; assay type: functional, cell-based; conditions: dose 0.5-2 µM
AGS [17] = test: Induction of apoptosis in human AGS cells assessed as increase in cleaved PARP expression at 0.5 to 2 uM incubated overnight by Western blotting analysis; assay type: functional, cell-based; conditions: dose 0.5-2 µM
HGC-27 [18] = test: Induction of apoptosis in human HGC-27 cells assessed as increase in cleaved caspase-3 expression at 0.5 to 2 uM incubated overnight by Western blotting analysis; assay type: functional, cell-based; conditions: dose 0.5-2 µM
AGS [19] = test: Induction of apoptosis in human AGS cells assessed as increase in cleaved caspase-3 expression at 0.5 to 2 uM incubated overnight by Western blotting analysis; assay type: functional, cell-based; conditions: dose 0.5-2 µM
HGC-27 [20] = test: Induction of cell cycle arrest in human HGC-27 cells assessed as increase in P21 expression at 0.5 to 2 uM by Western blotting analysis; assay type: functional, cell-based; conditions: dose 0.5-2 µM
HGC-27 [21] = test: Antitumor activity against human HGC-27 cells xenografted in male BALB/c nude mouse assessed as tumor growth suppression administered intraperitoneally every day for 15 days; assay type: functional, cell-based; conditions: dose 25-100 mg/kg, route ip, time 15.0 day
HGC-27 [22] = test: Antitumor activity against human HGC-27 cells xenografted in male BALB/c nude mouse assessed as tumor growth inhibition at 100 mg/kg, ip administered every day for 15 days relative to control; assay type: functional; conditions: HGC-27, 360 h, time 15 day, read-out: TGI
HGC-27 [23] = test: Upregulation of BECN1 mRNA expression in human HGC-27 cells at 2 uM incubated for 24 hrs; assay type: functional, cell-based
HGC-27 [24] = test: Upregulation of MAP1LC3B mRNA expression in human HGC-27 cells at 2 uM incubated for 24 hrs; assay type: functional, cell-based
HGC-27 [25] = test: Downregulation of RNA splicing pathway in human HGC-27 cells at 2 uM incubated for 24 hrs by KEGG enrichment analysis; assay type: functional, cell-based
HGC-27 [26] = test: Downregulation of RNA splicing pathway in human HGC-27 cells at 2 uM incubated for 24 hrs by GESA; assay type: functional, cell-based
HGC-27 [27] = test: Downregulation of SRSF1 protein level in human HGC-27 cells at 0.5 to 2 uM by Western blotting analysis; assay type: functional, cell-based; conditions: dose 0.5-2 µM
AGS [28] = test: Downregulation of SRSF1 protein level in human AGS cells at 0.5 to 2 uM by Western blotting analysis; assay type: functional, cell-based; conditions: dose 0.5-2 µM
AGS [29] = test: Downregulation of Bcl-xl protein level in human AGS cells at 0.5 to 2 uM by Western blotting analysis; assay type: functional, cell-based; conditions: dose 0.5-2 µM
HGC-27 [30] = test: Induction of autophagy in human HGC-27 cells assessed as upregulation of ATG5 protein level at 0.5 to 2 uM incubated for 48 hrs by Western blotting analysis; assay type: functional, cell-based; conditions: dose 0.5-2 µM
AGS [31] = test: Induction of autophagy in human AGS cells assessed as upregulation of ATG5 protein level at 0.5 to 2 uM incubated for 48 hrs by Western blotting analysis; assay type: functional, cell-based; conditions: dose 0.5-2 µM
AGS [32] = test: Induction of autophagy in human AGS cells assessed as upregulation of Beclin1 protein level at 0.5 to 2 uM incubated for 48 hrs by Western blotting analysis; assay type: functional, cell-based; conditions: dose 0.5-2 µM
AGS [33] = test: Induction of autophagy in human AGS cells assessed as upregulation of LC3 II protein level at 0.5 to 2 uM incubated for 48 hrs by Western blotting analysis; assay type: functional, cell-based; conditions: dose 0.5-2 µM
HGC-27 [34] = test: Induction of autophagy in human HGC-27 cells assessed as upregulation of LC3 I protein level at 0.5 to 2 uM incubated for 48 hrs by Western blotting analysis; assay type: functional, cell-based; conditions: dose 0.5-2 µM
[35] = Toxicity in male ICR mouse assessed as body weight gain at 1 g/Kg, ip measured after 7 days; assay type: organism-based; conditions: in vivo, 1000 mg/kg, 168 h, time 7 day
[36] = Toxicity in male ICR mouse assessed as animal death at 1 g/Kg, ip measured after 7 days; assay type: organism-based; conditions: in vivo, 1000 mg/kg, 168 h, time 7 day
[37] = Acute toxicity in male ICR mouse assessed as lethal dose administered as ip; conditions: in vivo

Compound: CC(C)[C@]12O[C@H]1[C@@H]1O[C@]13[C@]1(O[C@H]1C[C@H]1C4=C(CC[C@@]13C)C(=S)OC4)[C@@H]2O
- Activity (AGS [1]): Dose-dependent-effect
- IC50 (MCF7): 0.76 µM
- IC50 (AGS [2]): 0.64 µM
- IC50 (A549): 6.93 µM
- IC50 at 72 h [3]: 2.86 µM
- selectivity ratio [4]: 4.55
- viability at 0.5 µM (HGC-27 [5]): 85.9%
- Activity (HGC-27 [6]): 9.29%
- Activity (HGC-27 [7]): 0.11%
- Activity (HGC-27 [8]): 28.1%
- Activity (HGC-27 [9]): 19.7%
- viability at 0.5 µM (AGS [10]): 82.3%
- Activity (AGS [11]): 9.27%
- Activity (AGS [12]): 17.2%
- Activity (AGS [13]): 0.73%
- Activity (AGS [14]): 31.7%
- Activity (HGC-27 [15]): Active
- Activity (HGC-27 [16]): Active
- Activity (AGS [17]): Active
- Activity (HGC-27 [18]): Active
- Activity (AGS [19]): Active
- Activity (HGC-27 [20]): Active
- Activity (HGC-27 [21]): Dose-dependent-effect
- inhibition in vivo at 100 mg/kg (HGC-27 [22]): 82.7%
- Activity (HGC-27 [23]): Active
- Activity (HGC-27 [24]): Active
- Activity (HGC-27 [25]): Active
- Activity (HGC-27 [26]): Active
- Activity (HGC-27 [27]): Active
- Activity (AGS [28]): Active
- Activity (AGS [29]): Active
- Activity (HGC-27 [30]): Active
- Activity (AGS [31]): Active
- Activity (AGS [32]): Active
- Activity (AGS [33]): Active
- Activity (HGC-27 [34]): Active
- Activity [35]: Non-toxic
- Activity [36]: Non-toxic
- LD50 [37]: > 1000 mg/kg
